# Laboratory results published in US10668109B2, “Conditioning protocols and use of same for tissue regeneration” (Yeda Research and Development Co. Ltd., priority 2015, dated 2020).
# Key:
# pulmonary Clara cells = assay: Naphthalene lung injury model, ablation of Clara cells; format: in vivo, mouse; settings: naphthalene alone, C57BL mice
# Description: For lung injury studies, mice were given an intraperitoneal injection of naphthalene (NA) (more than 99% pure; Sigma-Aldrich), dissolved in corn oil, 200 mg per kg body weight, 40-48 hours before transplantation of embryonic lung tissue. To that end, these cells were initially evaluated in a model based on injury induction with naphthalene, as previously described [[…] et al, American Journal of Physiology-Lung Cellular and Molecular Physiology. (1995) 269(6):791]. This lung injury model mimics lung diseases caused by mild epithelial injury, detectable by changes in the expression of pulmonary Clara cells. The particular anatomical localization of Clara cells in respiratory bronchioles and in broncho-alveolar junctions enabled to accurately localize the site of injury after naphthalene exposure, and to test the ability of a single cell suspension of embryonic “window” cells to colonize and restore the injured epithelial layer in syngeneic recipients.
# [1] = test system: endogenous lung progenitors; assay: BrdU incorporation assay (lung cell proliferation in vivo); set-up: species or system mouse
# Description: Lung cell proliferation was measured in vivo by BrdU uptake. Briefly, control and four groups of experimental mice (7 days following naphthalene administration and 5 days after TBI) received a single dose of BrdU (Sigma) intraperitoneally 120 minutes before sacrifice (at a dose of 50 mg per kg of body weight). Lungs were excised, left lungs were enzymatically digested (using the same protocol as for embryonic tissue dissociation) for polychromatic FACS analysis, and right lungs were fixed with 4% PFA and processed for further immunofluorescence staining. Multiple serial slices were costained with anti-BrdU-FITC and anti-CCSP or anti-SPC antibodies. All FACS and immunohistochemical studies were done using the BrdU flow kit (BD Biosciences), according to the manufacturer's instructions. For morphometric analysis of CCSP^+BrdU^+ and SPC^+BrdU^+ cells, images were stained with anti-CCSP and anti-BrdU or anti-SPC and anti-BrdU antibodies and nuclei counterstained with Hoechst dye. The images were acquired by an observer blinded to the treatment groups, using an Olympus fluorescent microscope and Olympus digital camera (DP70) with a ×40 objective. At least 20 different stained random fields were counted for each marker.
# [2] = test system: C57BL/6 mice, recipient lungs; assay: Assessment of GFP+ foci in chimeric lungs by morphometry after different conditioning regimens; format: in vivo, mouse; settings: for engraftment / lung chimerism of donor-derived cells: conditioning with NA alone, 1×10^6 E16 lung cells 2 days after NA; for donor-derived foci: E16 lung cells
# Description: For lung injury studies, mice were given an intraperitoneal injection of naphthalene (NA) (more than 99% pure; Sigma-Aldrich), dissolved in corn oil, 200 mg per kg body weight, 40-48 hours before transplantation of embryonic lung tissue. For ‘double’ lung injury, naphthalene-treated animals were further irradiated in a cesium irradiator (Gammacell 40), (40-48 hours after naphthalene administration). C57BL/6, tdTomato (Gt(ROSA)26Sortm4(ACTB-tdTomato,-EGFP)Luo/J mice, and Rag1^−/− mice were irradiated with 6 Gy TBI, and NOD-SCID mice were irradiated 3-4 Gy TBI. Following conditioning with NA, TBI, or both, C57BL/6 mice were transplanted with 1×10^6 GFP-positive E15-E16 embryonic lung cells injected into the tail vein 4-8 hours following irradiation. Lungs were fixed with a 4% PFA solution introduced through the trachea under a constant pressure of 20 cm H2O. Then the lungs were immersed in fixative overnight at 4° C. Lungs were processed after PFA treatment and fixed in 30% sucrose and frozen in Optimal Cutting Temperature (OCT) compound (Sakura Finetek USA, Inc. Tissue-Tek). Serial step sections, 12 μm in thickness, were taken along the longitudinal axis of the lobe. The fixed distance between the sections was calculated so as to allow systematic sampling of at least 20 sections across the whole lung. Lung slices were analyzed by fluorescence microscopy. The actual number of GFP^+ foci (a group of more than 5 distinct GFP^+ cells was defined as a single patch) was counted per slice using Image Pro software. The area of each slice was estimated by Image Pro software, and the average area of slices and average frequency of GFP^+ patches in all the slices were assessed (patch(P)/Area(A) (mm2)), assuming that the frequency per area in a large number of slices reflects distribution per volume.
compound,measurement,setting,value
c1ccc2ccccc2c1 [naphthalene],ablation of Clara cells,pulmonary Clara cells,transient
same,endogenous cell recovery,[1]; 6 Gy TBI 48 hrs after NA treatment,inhibited
same,"level of BrdU+ cells within endothelial, epithelial and mesenchymal lineages (FACS)",[1]; 6 Gy TBI administered 48 hrs after NA,significantly reduced
same,ablation of endogenous pool of progenitors,[1]; 6 Gy TBI prior to NA treatment,did not effectively ablate the endogenous pool of progenitors
same,endogenous BrdU+ proliferating cells,"[1]; NA alone, no transplantation",marked signal of endogenous BrdU^+ proliferating cells
same,GFP positive patches (engraftment of donor-derived cells),"[2]; NA and 6 Gy TBI vs TBI alone or NA alone, 30 days post transplant",markedly enhanced
same,engraftment / lung chimerism of donor-derived cells,[2],could not enable significant engraftment
same,engraftment / lung chimerism of donor-derived cells,[2]; listed as NA,failed to attain a detectable level of lung chimerism
same,donor-derived foci,"[2]; conditioning with naphthalene alone, 30 days post transplant",10-12 foci/mm^3
same,donor-derived foci,"[2]; conditioning with naphthalene and 6 Gy TBI, 30 days post transplant",55 foci/mm^3
